Molecules are shown by their SMILES.

The values that follow come from patent US11225465B2, “Albicidin derivatives, their use and synthesis” (TECHNISCHE UNIVERSITÄT BERLIN, priority 2017, dated 2022).

Assay [1] concerns Staphylococcus aureus ATCC 29213. The following applies: n.a. for the compounds; cited from earlier work.
The test system of assay [2] is Pseudomonas aeruginosa ATCC 27853. The following applies: n.a. for the compounds; cited from earlier work.
Assay [3] deals with Staphylococcus aureus ATCC 29213. Nature of the assay: MHK against further strains (Table 2). The assay is classed as cell-based. To be noted: Nr. 8 Staphylococcus aureus ATCC 29213; KBE/ml 6.60E+05. The protocol: (§1) The tests were performed using the micro dilution method.
(§2) The determination of MIC values was performed according to the ninth edition of the Approved Standard M07-A9 (CLSI. Methods for Dilution Antimicrobial Susceptibility Tests for Bacteria That Grow Aerobically; Approved Standard—Ninth Edition. CLSI document M07-A9. Wayne, Pa.: Clinical and Laboratory Standards Institute; 2012.)

Assay [4] relates to Pseudomonas aeruginosa ATCC 27853. Nature of the assay: MHK against further strains (Table 2). To be noted: Nr. 6 Pseudomonas aeruginosa ATCC 27853; KBE/ml 5.60E+05. The assay is classed as cell-based. The protocol: as §1, §2
The subject of assay [5] is Escherichia coli ATCC 25922. The assay is described as follows: MHK against further strains (Table 2). It counts as cell-based. The following applies: Nr. 1 Escherichia coli ATCC 25922; KBE/ml 2.80E+05. As to the method:
as §1, §2

The subject of assay [6] is Escherichia coli ATCC 25922. The following applies: n.a. for the compounds; cited from earlier work.

For the compound `O=C(O)c1cn(C2CC2)c2cc(N3CCNCC3)c(F)cc2c1=O` [CIP, reference compound], the results for the “MHK range (unlabelled line below the ATCC strain)” value in assay [1], in assay [2] and in assay [6] were 0.12 to 0.5 mg/L, 0.25 to 1 mg/L and 0.004 to 0.015 mg/L, respectively. For the same compound, the results for the MHK in assay [3], in assay [4] and in assay [5] were 0.5 mg/L, 0.5 mg/L and 0.015 mg/L, respectively.
